Results reported in patent US20070259866A1, “Method of Adenovirus, HIV and HPV Prophylaxis” (priority 1999, published 2007).

What was measured:
[1] = tested on: NL-HX-ADA (macrophage-tropic isolate) Virus; test: Inactivation of HIV stock by 1 hr drug treatment, then PBMC infection, fluorescent focus assay (NL-HX-ADA); format: cell-based, Human Immunodeficiency Virus (HIV); settings: for Average # infected cells/area / # infected cells/area (~500 cells): 4 days; for # infected cells/area (~500 cells): single area counts
Experimental: In a study of the prophylactic effects of Compound 96 on Human Immunodeficiency Virus (HIV), virus stock solutions were inactivated by treatment with Compound 96. Stock solutions of viral types NL-HX-ADA having a p24 concentration of 4.1 μg/ml and NL-HX (P122) having a p24 concentration of 3.8 μg/ml were used for the study, along with a stock solution of Compound 96 having a concentration of 20 mg/ml in RPMI media.
Concentrated stock solution of viruses were treated for 1 hr with equal volume of medium containing the drug at the following concentrations:
After the 1 hr treatment period, the virus-drug solutions were diluted 1:1,000 with complete medium, and then mixed with an equal volume of Peripheral Blood Mononucleocyte (PBMC) cells, for a final dilution of virus and drug of 1:4,000.
The infected cultures were then incubated without any washing or other changes in media for 4 days (for the M-tropic NL-HX-ADA type) and 8 days (for the T-tropic NL-HX type). The cultures were then assayed for infection using standard fluorescent focus assays to quantitate infected cells.

[2] = tested on: human papillomavirus type 11 (HPV-11); test: HPV-11 pre-treated with CTC 96, subcutaneous human foreskin xenograft infection model in SCID mouse, graft size; format: in vivo; settings: for cGMD of the Grafts, Lower Quartile / cGMD of the Grafts, Median / cGMD of the Grafts, Upper Quartile: 12 weeks; for Composite Geometric Mean Diameters (cGMD) of the Grafts, Means: grafts at 12 weeks, replicates 1, 3, 4
Experimental: The activity of CTC 96 on human papillomavirus type 11 (HPV-11) prior to infection was tested by using a subcutaneous human xenograft infection model in the severe combined immunodeficiency (SCID) mouse.
Three different concentrations, 1%, 0.2% and 0.05%, of CTC 96 and a control (normal saline) were evaluated in HPV-11-infected internal human xenograft in the SCID mouse. The viral suspension was exposed for one hour with one of the four CTC 96 concentrations before being used to infect the human foreskin grafts.
Each experiment was done in quadruplicate. Twelve mice were used in each replicate. For each replicate, the four treatment groups were made of 3 mice (3 animals per cage). Each mouse received under the skin of each flank one HPV-11-infected foreskin fragment. Two foreskin donors were used, one for the fragments implanted under the left flank and a different one for the fragments implanted under the right flank. The HPV-11-infected grafts were left to grow for 12 weeks, while the mice weights were monitored every other week. At the end of the 12 weeks, the animals were sacrificed and the grafts recovered, measured and processed.
CTC 96 was applied to the virus directly, prior to infection. Just prior to exposure of the virus to CTC 96, 750 μl of normal saline was added to a vial containing 15 mg of dry CTC 96. The resulting solution contained 2% of CTC 96.
CTC 96 was incubated for 1 hour at 37° C. with the viral suspension, which was then used to infect the human foreskin fragments.
Neonatal foreskins from routine circumcision were collected at the nursery of a local hospital and placed in transport medium (Minimum Essential Medium, penicillin 25,000 U/ml, streptomycin 25 mg/mL), In a Petri dish, the foreskin's occluded side was removed using a scalpel, leaving the exposed skin prepared as a split-thickness graft. The foreskin was punched out using a 3 mm biopsy punch. One fragment was fixed in buffered formalin to serve as control in the histologic and immunocytochemical analyses. 3-4 fragments were snap frozen in liquid nitrogen, to serve as controls in the RT-PCR assay. The other fragments were split equally into four groups. Each group of fragments was dispensed in one of the vials containing 500 μl of pretreated viral suspension.
Two foreskin donors collected within 24 hours of the procedure, were used in each replicate experiment. Each viral suspension received the foreskin fragments of both foreskin donors. To recognize the foreskin donors, in each experiment we used […]. The fragments were vortexed in the suspension and left to incubate for 60 minutes at 37° C. before being grafted.
For the grafting, the mouse was anesthetized in an anesthesia chamber with 5% halothane to 2 liters of oxygen, until no corneal or pedal reflexes could be elicited. The animal was removed from the chamber, and the halothane adjusted to 2-2.5% to 1 liter of oxygen for continued administration via nose cone for the duration of the surgical procedure. The animals ears were notched for identification. The back skin was prepped with a povidone iodine swab. A 1 cm vertical incision of the skin was made on the flank with scissors. Through that incision, the subcutis was bluntly dissected with closed scissors caudad to the wound. One foreskin fragment from the […] donor was inserted in the caudad pocket, epidermis facing the mouse's skin, mucosal side in contact with the musculo-fascial plane (panniculus camosus) of the mouse. The incision was closed with two metal clips. The other side was grafted in the same manner with one foreskin fragment from the […] donor.
The animals were otherwise sacrificed by cervical dislocation 12 weeks after graft implantation. Length, width, and height of the graft were measured and recorded. The graft were then removed and split in at least two parts. One part was fixed in buffered formalin. […]

[3] = virus treated 1 hr at 0.625 mg/ml
[4] = virus treated 1 hr at 1.25 mg/ml
[5] = virus treated 1 hr at 2.5 mg/ml

CC1=CC(C)=[N+]2CC[N+]3=C(C)C=C(C)[O][Co-4]23([n+]2cc[nH]c2C)([n+]2cc[nH]c2C)[O]1.[Br-] [Compound 96]
reduction in infectivity ([1]; any drug-treated sample vs control infection (800-1200 infected cells per well)): ≥ 1,000 fold
infected cells when the entire well was scanned ([1]; any of the drug-treated samples): No infected cells were detected
inactivation of treated virus ([1]; even at the lowest concentration of drug tested (0.625 mg/ml), 1 hr treatment): completely inactivated
Average # infected cells/area [1, 3]: 0 cells/area
# infected cells/area (~500 cells) [1, 3]: 0 cells/area
Average # infected cells/area [1, 4]: 0 cells/area
# infected cells/area (~500 cells) [1, 4]: 0 cells/area
Average # infected cells/area [1, 5]: 0 cells/area
# infected cells/area (~500 cells) [1, 5]: 0 cells/area
Average # infected cells/area ([1]; virus treated 1 hr at 5 mg/ml): 0 cells/area
# infected cells/area (~500 cells) ([1]; virus treated 1 hr at 5 mg/ml): 0 cells/area
Average # infected cells/area ([1]; virus treated 1 hr at 10 mg/ml): 0 cells/area
# infected cells/area (~500 cells) ([1]; virus treated 1 hr at 10 mg/ml): 0 cells/area
effect on graft size ([2]; 0.05% concentration): effective
cGMD of the Grafts, Lower Quartile ([2]; CTC 96 0.05%): 1.94 mm
cGMD of the Grafts, Median ([2]; CTC 96 0.05%): 2.01 mm
cGMD of the Grafts, Upper Quartile ([2]; CTC 96 0.05%): 2.13 mm
cGMD of the Grafts, Lower Quartile ([2]; CTC 96 0.2%): 1.70 mm
cGMD of the Grafts, Median ([2]; CTC 96 0.2%): 1.88 mm
cGMD of the Grafts, Upper Quartile ([2]; CTC 96 0.2%): 2.05 mm
cGMD of the Grafts, Lower Quartile ([2]; CTC 96 1%): 1.82 mm
cGMD of the Grafts, Median ([2]; CTC 96 1%): 1.94 mm
cGMD of the Grafts, Upper Quartile ([2]; CTC 96 1%): 2.08 mm
HPV-11-induced growth of the grafts ([2]; regardless of the concentration used): limited the HPV-11-inducted growth of the grafts
Composite Geometric Mean Diameters (cGMD) of the Grafts, Means ([2]; virus exposed 1 hour to CTC 96 0.05%): 2.02 mm
Composite Geometric Mean Diameters (cGMD) of the Grafts, Means ([2]; virus exposed 1 hour to CTC 96 0.2%): 1.86 mm
Composite Geometric Mean Diameters (cGMD) of the Grafts, Means ([2]; virus exposed 1 hour to CTC 96 1%): 1.95 mm
